Paper PMC3823594, “Conformational Changes Underlying Pore Dilation in the Cytoplasmic Domain of Mammalian Inward Rectifier K^+ Channels” (PLoS ONE, 2013)
Numbering of substitutions follows the chain as printed.

Tests used:
Kir3.2 WT = assay: Inside-out patch clamp recording of channel activity; type: cell-based, mouse; conditions: Kir3.2 WT in HEK293T inside-out patches, −100 mV
Description: (§1) The Kir3.2d and m2R subcloned into pcDNA3 (Invitrogen) were transfected into HEK293T cells using the Lipofectamine Plus reagent (Invitrogen, Carlsbad, CA). Single-channel activity was recorded in a cell-attached configuration at a holding potential of -100 mV using a patch-clamp amplifier (Axopatch 200B; Axon Instruments). The current traces were low-pass filtered at 1 kHz and digitized at 10 kHz. The glass pipettes had resistances of 2.5–3.5 MΩ when filled with the pipette solution, which contained 135 mM KCl, 1 mM CaCl2, 1.6 mM MgCl2, 5 mM HEPES, and 5 μM ACh; the bath solution was a Tyrode solution. A 50% crossing criterion for the current amplitude was used to judge the single-channel activity.
(§2) Inside-out patch clamp experiments were performed by the excision of patch membranes in the cell-attached configuration. The bath solution consisted of 135 mM KCl, 5 mM EGTA, 2 mM MgCl2 and 5 mM HEPES. The holding potential was -100 mV. We perfused ATP at the intracellular side to produce PIP2 at the inner leaflet of the plasma membrane, GTP (3 μM) to produce Gβγ mildly and GTPγS (10 μM) to generate Gβγ maximally. The pH of all solutions was adjusted to 7.35 with KOH prior to the experiments. All experiments were conducted at ambient temperature (20–25°C).
Figure 5 Inside-out patch recordings of Kir3.2 WT and mutant channels. […]

Kir3.2 M313G = target: T1, Kir3.2 M313G (Mus musculus, UniProt P48542, I313G); assay: as above; type: cell-based; conditions: Kir3.2 M313G in HEK293T inside-out patches; ATP perfused at 2 mM; −100 mV
T1 sequence (P48542 19-425 I313G): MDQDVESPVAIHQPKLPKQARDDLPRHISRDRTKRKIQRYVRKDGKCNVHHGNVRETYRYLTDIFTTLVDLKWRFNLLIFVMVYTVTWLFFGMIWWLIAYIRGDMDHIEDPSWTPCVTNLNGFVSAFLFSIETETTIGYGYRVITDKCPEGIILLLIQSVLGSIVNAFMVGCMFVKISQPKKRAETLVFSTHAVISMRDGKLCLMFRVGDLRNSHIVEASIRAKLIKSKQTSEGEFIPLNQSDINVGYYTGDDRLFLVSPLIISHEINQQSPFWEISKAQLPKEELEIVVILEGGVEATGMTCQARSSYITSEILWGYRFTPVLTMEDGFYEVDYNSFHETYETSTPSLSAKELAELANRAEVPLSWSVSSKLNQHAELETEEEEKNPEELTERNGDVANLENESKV
T1 sequence (P06199 1-466 partner): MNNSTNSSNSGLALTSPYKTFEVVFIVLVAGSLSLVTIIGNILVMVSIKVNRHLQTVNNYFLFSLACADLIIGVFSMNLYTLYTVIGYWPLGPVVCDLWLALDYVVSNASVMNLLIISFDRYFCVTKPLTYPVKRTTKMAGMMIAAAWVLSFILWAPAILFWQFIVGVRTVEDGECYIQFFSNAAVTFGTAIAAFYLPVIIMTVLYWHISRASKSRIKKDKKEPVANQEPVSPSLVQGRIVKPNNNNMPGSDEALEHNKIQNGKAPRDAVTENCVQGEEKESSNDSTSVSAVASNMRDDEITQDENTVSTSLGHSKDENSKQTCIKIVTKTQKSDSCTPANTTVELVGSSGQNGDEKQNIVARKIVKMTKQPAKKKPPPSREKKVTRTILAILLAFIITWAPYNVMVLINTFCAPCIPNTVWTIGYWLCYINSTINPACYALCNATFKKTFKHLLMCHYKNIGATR
Description: as §1, §2
(§3) Figure 5 Inside-out patch recordings of Kir3.2 WT and mutant channels. Inside-out membrane patches were obtained from HEK293T cells expressing either Kir3.2 WT (A), M313G (B) or M313T mutant (C) channels. Experiments were conducted in symmetric 135 mM K^+ solutions with a holding potential of -100 mV. Perfusion of ATP was for the generation of PIP2 at the inner leaflet of the excised patch membranes. The protocol used for perfusion of substances to the intracellular side of the patch membrane is indicated by bars above the current traces.

Kir3.2 M313T = target: T2, Kir3.2 M313T (Mus musculus, UniProt P48542, I313T); assay: as above; type: cell-based; conditions: Kir3.2 M313T in HEK293T inside-out patches, −100 mV
T2 sequence (P48542 19-425 I313T): T1 sequence (P48542 19-425 I313G) with G295T
T2 sequence (P06199 1-466 partner): T1 sequence (P06199 1-466 partner)
Description: as §1, §2, §3

[1] = target: cytoplasmic domain (CPD) of the mouse Kir3.2 E236R mutant (mouse); assay: not stated; purified CPD E236R in solution; the method for the oligomeric state is not told
[2] = target: cytoplasmic domain (CPD) of the mouse Kir3.2 E236R mutant (mouse); assay: crystal structure; sitting drops; reservoir 15% (v/v) ethanol, 0.1 M HEPES-NaOH (pH 7.5), 0.2 M MgCl2; 4°C; space group P4212; 2.0 Å

Nc1ncnc2c1ncn2[C@@H]1O[C@H](COP(=O)(O)OP(=O)(O)OP(=O)(O)O)[C@@H](O)[C@H]1O [ATP]
Channel activity as % of that evoked by 10 μM GTPγS (Kir3.2 WT; ATP perfused at 2 mM): 15 ± 4%
Channel activity as % of that evoked by 10 μM GTPγS (Kir3.2 M313G): 59 ± 6%
Sensitivity to ATP perfusion (Kir3.2 M313T; in contrast to M313G): less sensitive

Nc1nc2c(ncn2[C@@H]2O[C@H](COP(=O)(O)OP(=O)(O)OP(=O)(O)O)[C@@H](O)[C@H]2O)c(=O)[nH]1 [GTP]
Channel activity as % of the response evoked by GTPγS (Kir3.2 WT; GTP (3 μM)): 4 ± 2%
Channel activity as % of the response evoked by GTPγS (Kir3.2 M313T; GTP (3 μM)): about 11 ± 2%

cytoplasmic domain (CPD) of the mouse Kir3.2 E236R mutant (domain or fragment)
stoichiometry N [1]: 4
stoichiometry N [2]: 4
